This assay has as its target NaV1.9 (Rattus norvegicus, UniProt O88457). The experiment in a line: whole-cell patch clamp of NaV1.9-mediated current. It is filed as cell-based. On the technique in general: Patch clamp records ionic current or voltage across a cell membrane.

Each structure is given as a SMILES string.

Sequence of NaV1.9 (O88457 whole entry): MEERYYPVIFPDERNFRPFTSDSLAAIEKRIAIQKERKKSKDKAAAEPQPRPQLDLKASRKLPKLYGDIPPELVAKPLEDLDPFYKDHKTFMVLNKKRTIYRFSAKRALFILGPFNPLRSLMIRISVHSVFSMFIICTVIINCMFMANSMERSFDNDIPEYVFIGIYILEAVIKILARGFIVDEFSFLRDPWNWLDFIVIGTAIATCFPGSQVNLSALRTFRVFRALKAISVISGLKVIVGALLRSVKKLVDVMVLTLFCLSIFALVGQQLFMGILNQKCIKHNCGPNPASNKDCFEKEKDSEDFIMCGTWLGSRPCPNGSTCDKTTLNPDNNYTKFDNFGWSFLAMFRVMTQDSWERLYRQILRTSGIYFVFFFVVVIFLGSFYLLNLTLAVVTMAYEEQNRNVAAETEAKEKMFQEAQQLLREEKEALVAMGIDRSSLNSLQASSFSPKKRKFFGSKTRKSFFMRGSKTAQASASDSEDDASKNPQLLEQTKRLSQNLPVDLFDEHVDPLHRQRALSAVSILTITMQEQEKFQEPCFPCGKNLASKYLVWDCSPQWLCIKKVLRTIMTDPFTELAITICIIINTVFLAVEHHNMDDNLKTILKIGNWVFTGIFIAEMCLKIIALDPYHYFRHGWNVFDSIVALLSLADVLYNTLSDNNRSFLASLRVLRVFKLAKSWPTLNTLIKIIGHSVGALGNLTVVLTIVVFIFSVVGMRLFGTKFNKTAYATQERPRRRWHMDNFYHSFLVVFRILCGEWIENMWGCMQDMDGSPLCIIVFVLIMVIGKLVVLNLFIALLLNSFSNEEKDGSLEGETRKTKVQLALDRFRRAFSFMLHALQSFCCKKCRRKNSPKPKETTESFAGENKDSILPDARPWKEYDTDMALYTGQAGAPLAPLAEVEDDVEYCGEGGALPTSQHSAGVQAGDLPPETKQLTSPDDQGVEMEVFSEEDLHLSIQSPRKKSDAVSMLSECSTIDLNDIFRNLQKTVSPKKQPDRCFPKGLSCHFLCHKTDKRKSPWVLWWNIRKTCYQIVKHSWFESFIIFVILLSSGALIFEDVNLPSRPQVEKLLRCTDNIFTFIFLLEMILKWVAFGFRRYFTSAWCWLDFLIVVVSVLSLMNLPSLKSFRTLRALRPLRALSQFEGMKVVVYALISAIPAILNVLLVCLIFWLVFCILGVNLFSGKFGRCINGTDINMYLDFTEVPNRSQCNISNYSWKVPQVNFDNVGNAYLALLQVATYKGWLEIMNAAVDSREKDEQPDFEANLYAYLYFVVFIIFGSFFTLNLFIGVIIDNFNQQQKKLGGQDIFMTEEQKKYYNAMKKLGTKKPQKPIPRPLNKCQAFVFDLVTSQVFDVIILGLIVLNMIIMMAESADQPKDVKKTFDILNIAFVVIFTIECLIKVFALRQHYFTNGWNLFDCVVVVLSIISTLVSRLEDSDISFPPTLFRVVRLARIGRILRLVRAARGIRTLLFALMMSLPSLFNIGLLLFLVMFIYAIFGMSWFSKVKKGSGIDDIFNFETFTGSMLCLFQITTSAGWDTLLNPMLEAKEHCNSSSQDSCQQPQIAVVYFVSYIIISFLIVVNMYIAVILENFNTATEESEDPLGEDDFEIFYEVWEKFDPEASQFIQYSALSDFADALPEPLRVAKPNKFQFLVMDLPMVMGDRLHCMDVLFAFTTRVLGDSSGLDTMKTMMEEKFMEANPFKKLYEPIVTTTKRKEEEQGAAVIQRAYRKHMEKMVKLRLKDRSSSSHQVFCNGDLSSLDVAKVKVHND

With `C[C@]12CC[C@H](O)CC1=CC[C@@H]1[C@@H]2CC[C@]2(C)C(=O)CC[C@@H]12` [DHEA, dehydroepiandrosterone], the IC50 – broadly, the concentration that gives 50% inhibition – worked out at 49.2 µM.

The values are drawn from PMC11863801 (The Journal of Headache and Pain, 2025).
